What was measured:
[1] = system: PC3 and C4-2 sensitive and resistant cells; assay: Prostatosphere formation; assay type: cell-based; conditions: resistant cells (PC3-R); EHT1864 20 μM
Method: FIG. 2B. Resistant and sensitive populations were analyzed for prostatosphere formation in the presence of either a NRP inhibitory peptide (c-furSEMA) or control peptide (c-SEMA).
FIG. 3H. PC3-R cells were stimulated with VEGF in the presence or absence of a Rac1 inhibitor (EHT1864; 20 μM) and the effect on prostatosphere formation was measured.
FIG. 6I. Prostatosphere formation by VEGF^high cells in the presence or absence of EHT1864 was quantified.

[2] = system: Lin-Sca+CD49fhigh cells (LSC cells); assay: Freshly sorted LSC cells from PTENpc-/- mice: proliferation, prostatosphere formation, qPCR; assay type: cell-based, mouse; conditions: Rac1 inhibitor EHT1864 (FIG. 3I)
Method: FIG. 3I. Freshly sorted Lin^−Sca^+CD49f^high cells (LSC cells) from PTEN^pc−/− mice were used to measure the effect of EHT1864, mcr84 or sunitinib on cell proliferation and prostatosphere formation.
FIG. 3J. Freshly sorted LSC cells from PTEN^pc−/− mice were treated with EHT1864 (20 μM) and expression of genes associated with stem cells and VEGF signaling was quantified by qPCR.
(§1) Cell-based assays: The chemosensitivity of prostate cancer cells was determined using a standard 3-(4,5-dimethylthiazol-2-yl)-2,5-diphenyltetrazolium bromide (MTT) cytotoxicity assay. The assay was performed 72 hours after treatment. FACS was used to isolate cells based on their surface expression of CD44, CD24, and the α6 and β4 integrins. The detailed procedure for isolating LSC cells from PTEN^pc−/− mice using lineage markers (CD31, CD45, and Ter119), Sca-1, and CD49f is described, e.g., in Mulholland, D. J., Xin, L., Morim, A., Lawson, D., Witte, O., and Wu, H. 2009. Lin−Sca−1+CD49fhigh stem/progenitors are tumor-initiating cells in the Pten-null prostate cancer model. Cancer Res 69:8555-8562; Lawson, D. A., Xin, L., Lukacs, R. U., Cheng, D., and Witte, O. N. 2007. Isolation and functional characterization of murine prostate stem cells. Proc Natl Acad Sci USA 104:181-186.

[3] = system: PTENpc-/- prostate tumors; assay: Pten pc-/- transgenic mouse model of prostate cancer; assay type: in vivo; conditions: for number of LSC cells: from 6 weeks of age
Method: FIG. 4C. Six-week old Pten^pc−/− mice were injected (i.p.) with either mcr84 (10 mg/kg) or EHT1864 (10 mg/kg) twice weekly for three weeks. The GU tract was harvested and total weight was measured. The prostate glands were separated and combined weight of all the lobes was measured. The prostate glands were digested and LSC cells (Lin^−Sca^+CD49f^high) were isolated by FACS.
FIG. 4D. Six-week old Pten^pc−/− mice were injected (i.p.) with either mcr84 (10 mg/kg) or EHT1864 (10 mg/kg) twice weekly for three weeks. The GU tract was harvested and total weight was measured. The prostate glands were separated and combined weight of all the lobes was measured.
FIG. 4E. Hematoxylin and eosin (H&E) staining of prostate tumors from Pten^pc−/− mice described in FIG. 4C, and the percentage of prostate glands showing either PIN or well-differentiated adenocarcinoma (AdCa). Scale bar is 100 μm.
FIG. 4F. TUNEL staining of tumor sections of prostate tumors from Pten^pc−/− mice described in FIG. 4C to detect apoptosis. Scale bar is 100 μm.
FIG. 7C. Six-week old Pten^pc−/− mice were injected (i.p.) with either mcr84 (10 mg/kg) twice weekly for three weeks. The prostate glands were harvested and immunostained using a myc antibody.
To pursue this hypothesis further, PTEN^pc−/− transgenic mice were treated with the Rac1 inhibitor (EHT1864), mcr84 or both at the start of puberty (6 weeks). […] We also compared the impact of mono- and combined therapy on PTEN^pc−/− tumors by calculating the weights of the isolated GU tracts and prostate lobes. […] Moreover, a mass of cells in the lumen of the gland was evident in mice that received the combined treatment. […] These tumor groups were also stained with CD31. Six-week old Ptenpc−/− mice were injected (i.p.) with either mcr84 (10 mg/kg) or EHT1864 (10 mg/kg) twice weekly for three weeks. The prostate glands were harvested and angiogenesis was analyzed using CD31 staining.

NRP1 = NRP1 (Homo sapiens, UniProt O14786); assay: Ability to block VEGF-A binding to NRP; conditions: FIG. 9H
From the text: FIG. 9H. Ability of VEGF antibodies to block VEGF-A binding to NRP.

[4] = system: PC3 and C4-2 sensitive and resistant cells; assay: Colony formation and MTT viability of sensitive and resistant cell lines; assay type: cell-based
Method: FIG. 1F. PC3 and C4-2 resistant and sensitive cell lines were analyzed for colony formation in the presence or absence of 10 μM Pazopanib.
FIG. 2C. Resistant and sensitive populations were analyzed for sensitivity to bevacuzimab (1 mg/ml) in the presence of either a NRP inhibitory peptide (c-furSEMA) or control peptide (c-SEMA).
FIG. 8F. PC3 and C4-2 resistant and sensitive cell lines were cultured in the presence of pazopanib (10 μM) or DMSO for 72 hours and cell viability is analyzed using the MTT assay.
FIG. 9D. PC3 and C4-2 resistant cells (10^3 cells per 60 mm plate) were cultured in the presence of either c-SEMA or c-furSEMA (1 μM), control IgG or NRP2 inhibitory antibody (1 μg/ml), or their respective controls for 10 days and colonies were stained with crystal violet. Colonies with more than 50 cells were counted.
as §1
The resistant cell lines generated are referred to as PC3-R and C4-2R. As controls, we also exposed these cell lines to control IgG (hIgG) and DMSO and refer to these as sensitive cell lines (PC3-S and C4-2S) (FIGS. 1D-1E).

ERK = ERK activation by immunoblotting with phospho-specific antibody; assay type: cell-based
Method: FIG. 2D. PC3-S cells were serum-deprived overnight and stimulated with VEGF (50 ng/ml) for 30 minutes in the presence or absence of bevacuzimab (5 mg/ml). The activation of ERK was analyzed by immunoblotting using a phospho-specific antibody.
FIG. 2F. Sensitive and resistant C4-2 cell lines were serum-deprived overnight and stimulated with VEGF (50 ng/ml) for 30 minutes in the presence of bevacuzimab (5 mg/ml). The activation of ERK and AKT was analyzed by immunoblotting using phospho-specific antibodies.
FIG. 2G. Sensitive and resistant PC3 cell lines were serum-deprived overnight and stimulated with VEGF (50 ng/ml) for 30 minutes in the presence of bevacuzimab (5 mg/ml). The activation of ERK and AKT was analyzed by immunoblotting using phospho-specific antibodies.
FIG. 6F. VEGF^high and VEGF^low cells were serum-deprived overnight and stimulated with VEGF (50 ng/ml) for 30 minutes in the presence or absence of bevacuzimab (5 mg/ml). The activation of ERK was analyzed by immunoblotting using a phospho-specific antibody.

[5] = system: androgen-independent prostate cancer; conditions: bevacizumab monotherapy; cited from earlier work
PC3-R xenograft tumors = assay: PC3-R xenografts in NSG mice; assay type: in vivo, mouse
Method: FIGS. 4A-4F. Rac1 inhibition improves sensitivity to VEGF/VEGFR-targeted therapy. FIG. 4A. Tumor volume of mice that were treated with either control IgG or bevacuzimab. PC3-R cells were transfected with Rac1 shRNAs and these cells were implanted in NSG mice. Once tumors reached approximately 100 mm^3 in volume, mice were treated with either control IgG or bevacuzimab (10 mg/kg, intraperitoneally, twice weekly). Tumor volume was measured every third day.
FIG. 4B. Terminal deoxynucleotidyl transferase dUTP nick end labeling (TUNEL) for control and treated PC3-R xenograft tumors that were harvested. Apoptosis was analyzed using TUNEL staining. Scale bar is 10 μm.

[6] = system: human prostate tumor cells; assay: Sensitivity to bevacizumab of subpopulations sorted from freshly harvested prostate tumors (cell survival); assay type: cell-based
Method: FIG. 1B. Four subpopulations isolated based on expression of CD44 and CD24 were analyzed for their sensitivity to bevacuzimab. The percentage of live cells in three different areas was determined and mean is plotted as cell survival.
FIG. 1C. Cells from two human freshly harvested prostate tumors were sorted using ITGA6 and ITGB4 antibodies. The four subpopulations isolated based on expression of ITGA6 and ITGB4 were analyzed for their ability to form prostatospheres and sensitivity to bevacuzimab. The percentage of live cells in three different areas was determined and mean is plotted as cell survival.
Isolation of human prostate tumor cells and laser capture microscopy (LCM): Human prostate tumor tissue was obtained from UMASS Cancer Center Tissue Bank in compliance with the Institutional Review Board of the University of Massachusetts Medical School. The discarded but freshly resected, prostate tumors were digested with collagenase at 37° C. and epithelial cells were isolated using an EpCaM antibody. Frozen sections were microdissected by laser capture microscopy (Arcturus PixCell 2) to obtain pure populations of tumor cells of defined Gleason grades. […] Quantitative real-time PCR was done using the Taqman assay kit (Applied Biosystems). […]

[7] = system: VEGFhigh and VEGFlow PC3 cells; assay: Proliferation of VEGFhigh and VEGFlow cells; assay type: cell-based; conditions: bevacizumab 1 mg/ml, sunitinib 20 μM, 72 hours
Method: FIG. 6E. VEGF^high and VEGF^low cells were incubated with bevacuzimab (1 mg/ml) or sunitinib (20 μM) for 72 hours and their proliferation was assayed.

[8] = 10 mg/kg i.p. twice weekly for three weeks
[9] = Rac1-depleted (shRNA) PC3-R xenografts plus bevacizumab

With `O=c1cc(CN2CCOCC2)occ1OCCCCCSc1ccnc2cc(C(F)(F)F)ccc12` [EHT1864] the number of prostatospheres [1] was “reduced the number of prostatospheres”, the “sensitivity of LSC cells to mcr84 and sunitinib” value [2] was “increased the sensitivity of LSC cells” and the “angiogenesis (CD31 staining)” value [3, 8] was “No significant difference in staining”. The “number of LSC cells” value [3, 8] was “reduced the number of LSC cells significantly”, the “number of LSC cells” value ([3]; 10 mg/kg i.p. twice weekly for three weeks, listed as RACi) was “significantly reduced” and the “pathological examination of prostate tumors (PIN or adenocarcinoma)” value ([3]; H&E staining) was “progressed to well-differentiated adenocarcinomas”.
In the case of bevacizumab, the “blocking of the binding of VEGF-A to NRP1” value (NRP1) is reported as “Neither mcr84 nor bevacizumab blocked”, the “sensitivity of resistant cells after down-regulation of P-Rex1” value ([4]; PC3-R cells with P-Rex1 shRNA, bevacizumab 1 mg/ml, sunitinib 20 μM) is reported as “increased their sensitivity” and the “sensitivity to bevacizumab after down-regulation of NRP2 or NRP1” value ([4]; PC3-R cells, shRNA) is reported as “increased sensitivity”. The “ability of the resistant cell lines to form colonies or survive” value ([4]; PC3-R, C4-2R, bevacizumab 1 mg/ml, sunitinib 20 μM, 10 days colonies, 72 hours MTT) was “Neither bevacizumab nor sunitinib inhibited”, the “resistance to inhibition of viability and prostatosphere formation after expression of constitutively active MEK” value ([4]; sensitive cells) was “increased their resistance” and the “resistance to bevacizumab after ectopic expression of NRP2” value ([4]; sensitive cells, in the presence of VEGF) was “induces resistance”. The “basal ERK activation” value (ERK; VEGFhigh cells) was “resistant”, the “VEGF-induced ERK activation” value (ERK; VEGFlow cells) was “inhibited” and the ERK activation (ERK; resistant cells, bevacizumab 5 mg/ml) was “unable to inhibit ERK activation”. For the same compound, the “patients exhibiting a decline in PSA” value [5] was 27%, the “response based on RECIST criteria” value [5] was “no response noted” and the “apoptosis in residual tumors (TUNEL)” value (PC3-R xenograft tumors; [9]) was “contained mostly apoptotic cells”. For the same compound, the tumor volume (PC3-R xenograft tumors; [9]) was “significantly better decrease in tumor volume”, the tumor growth (PC3-R xenograft tumors; control PC3-R xenografts, bevacizumab alone, 10 mg/kg i.p. twice weekly) was “no significant effect on tumor growth” and the “resistance to bevacizumab treatment (cell survival)” value ([6]; CD44+CD24- (P1) subpopulation versus other subpopulations) was “the only subpopulation that exhibited resistance”. For the same compound, the “resistance to bevacizumab treatment (cell survival)” value ([6]; high CD49f population compared to low CD49f population) was “exhibited resistance” and the “resistance of VEGFhigh cells compared to VEGFlow cells (proliferation)” value [7] was “more resistant”.
